Patent US9174992B2, “Heterobicyclic compounds” (Amgen Inc., priority 2012, dated 2015)

Target: PDE10A (UniProt Q9Y233)
Experiment: PDE10 enzyme inhibition, IMAP TR-FRET assay (Example A, MPDE10A7 Enzyme Activity and Inhibition)
Format: biochemical
Conditions: approximate IC50 value, Table 10
Description: Enzyme Activity. An IMAP TR-FRET assay was used to analyze the enzyme activity (Molecular Devices Corp., Sunnyvale Calif.). 10 μL of serial diluted PDE10A (BPS Bioscience, San Diego, Calif.) or tissue homogenate was incubated with equal volumes of diluted fluorescein labeled cAMP or cGMP for 90 min in 384-well Polypropylene assay plates (Greiner, Monroe, N.C.) at room temperature. After incubation, the reaction was stopped by adding 55 μL of diluted binding reagents and was incubated for 4 hours to overnight at room temperature. The plates were read on an Envision (Perkin Elmer, Waltham, Mass.) for time resolved fluorescence resonance energy transfer. The data were analyzed with Genedata Screener® (Lexington, Mass.).
Enzyme Inhibition. To check the inhibition profile, 0.2 μL of serial diluted compounds were incubated with 10 μL of diluted PDE10 enzyme (BPS Bioscience, San Diego, Calif.) or tissue homogenate in a 384-well Polypropylene assay plate (Greiner, Monroe, N.C.) for 60 min at room temperature. After incubation, 10 μL of diluted fluorescein labeled cAMP or cGMP substrate were added and incubated for 90 min at room temperature. The reaction was stopped by adding 55 μL of diluted binding reagents and plates were read on an Envision (Perkin Elmer, Waltham, Mass.) for time resolved fluorescence resonance energy transfer. The data were analyzed with Genedata Screener® (Lexington, Mass.).
IC50 curves were generated from the raw data collected from the […] and fitted with a four-parameter logistic equation using in-house data analysis tool, Activity Base.

SMILES | IC50 [nM]
Cc1ccc(N[C@H]2CC[C@H](N3C(=O)C(C)(C)c4nccnc43)CC2)nc1 [Example 73, 7,7-dimethyl-5-(trans-4-((5-methylpyridin-2-yl)amino)cyclohexyl)-5H-pyrrolo[2,3-b]pyrazin-6(7H)-one] | 1.54
CC1(C)C(=O)N([C@H]2C[C@H](Nc3ccc(F)cn3)C2)c2nccnc21 [Example 76, 5-(trans-3-((5-fluoropyridin-2-yl)amino)cyclobutyl)-7,7-dimethyl-5H-pyrrolo[2,3-b]pyrazin-6(7H)-one] | 51.1
Cc1ccc(N[C@H]2CC[C@H](N3C(=O)C(C)(C)c4cccnc43)CC2)nc1 [Example 77, 3,3-Dimethyl-1-(trans-4-((5-methylpyridin-2-yl)amino)cyclohexyl)-1H-pyrrolo[2,3-b]pyridin-2(3H)-one] | 1.29
CC1(C)C(=O)N([C@H]2C[C@H](Nc3ccc(C4CC4)cn3)C2)c2nccnc21 [Example 78, 5-(trans-3-((5-cyclopropylpyridin-2-yl)amino)cyclobutyl)-7,7-dimethyl-5H-pyrrolo[2,3-b]pyrazin-6(7H)-one] | 4.2
CC1(C)C(=O)N([C@H]2C[C@H](Nc3ncc(C4CC4)cn3)C2)c2ncccc21 [Example 79, 1-(trans-3-((5-cyclopropylpyrimidin-2-yl)amino)cyclobutyl)-3,3-dimethyl-1H-pyrrolo[2,3-b]pyridin-2(3H)-one] | 6.15
C=C(C)c1cnc(NC2CC(N3C(=O)C(C)(C)c4cccnc43)C2)nc1 (stereo not shown) [Example 80, 3,3-dimethyl-1-(−3-((5-(prop-1-en-2-yl)pyrimidin-2-yl)amino)cyclobutyl)-1H-pyrrolo[2,3-b]pyridin-2(3H)-one] | 1.43
CC1(C)C(=O)N([C@H]2C[C@@H](Nc3nc4ccccc4s3)C2)c2ncccc21 [Example 81, 1-(Cis-3-(benzo[d]thiazol-2-ylamino)cyclobutyl)-3,3-dimethyl-1H-pyrrolo[2,3-b]pyridin-2(3H)-one] | 1.26
COc1cnc(N[C@H]2C[C@H](N3C(=O)C(C)(C)c4cccnc43)C2)nc1 [Example 83, 1-(trans-3-((5-methoxypyrimidin-2-yl)amino)cyclobutyl)-3,3-dimethyl-1H-pyrrolo[2,3-b]pyridin-2(3H)-one] | 7.72
CC(=O)c1ccc(N[C@H]2C[C@H](N3C(=O)C(C)(C)c4nccnc43)C2)nc1 [Example 84, 5-(trans-3-((5-acetylpyridin-2-yl)amino)cyclobutyl)-7,7-dimethyl-5H-pyrrolo[2,3-b]pyrazin-6(7H)-one] | 23.1
Cn1c(=O)n([C@H]2C[C@H](Nc3nc4ccccc4s3)C2)c2ncc(F)cc21 [Example 86, 3-(trans-3-(benzo[d]thiazol-2-ylamino)cyclobutyl)-6-fluoro-1-methyl-1H-imidazo[4,5-b]pyridin-2(3H)-one] | 0.0655
Cn1c(=O)n([C@H]2C[C@H](Nc3nc4ccccc4s3)C2)c2ncccc21 [Example 88, 3-(trans-3-(benzo[d]thiazol-2-ylamino)cyclobutyl)-1-methyl-1H-imidazo[4,5-b]pyridin-2(3H)-one] | 0.0911
O=c1n(C2CC2)c2nccnc2n1[C@H]1C[C@H](Nc2nc3ccccc3s2)C1 [Example 90, 1-(trans-3-(benzo[d]thiazol-2-ylamino)cyclobutyl)-3-cyclopropyl-1H-imidazo[4,5-b]pyrazin-2(3H)-one] | 0.388
O=c1n(C2CC2)c2cncnc2n1[C@H]1C[C@H](Nc2nc3ccccc3s2)C1 [Example 91, 9-(trans-3-(benzo[d]thiazol-2-ylamino)cyclobutyl)-7-cyclopropyl-7H-purin-8(9H)-one] | 0.469
Cn1c(=O)n([C@H]2C[C@H](Nc3nc4ccccc4s3)C2)c2ncncc21 [Example 93, 9-(trans-3-(benzo[d]thiazol-2-ylamino)cyclobutyl)-7-methyl-7H-purin-8(9H)-one] | 0.878
O=c1[nH]c2cccnc2n1[C@H]1C[C@H](Nc2nc3ccccc3s2)C1 [Example 94, 3-(trans-3-(benzo[d]thiazol-2-ylamino)cyclobutyl)-1H-imidazo[4,5-b]pyridin-2(3H)-one] | 0.91
Cn1c(=O)n([C@H]2C[C@H](Nc3nc4ccccc4s3)C2)c2nccnc21 [Example 95, 1-(trans-3-(benzo[d]thiazol-2-ylamino)cyclobutyl)-3-methyl-1H-imidazo[4,5-b]pyrazin-2(3H)-one] | 0.971
O=c1[nH]c2cccnc2n1[C@H]1C[C@H](Nc2ccc3ccccc3n2)C1 [Example 96, 3-(trans-3-(quinolin-2-ylamino)cyclobutyl)-1H-imidazo[4,5-b]pyridin-2(3H)-one] | 1.09
O=c1[nH]c2cncnc2n1[C@H]1C[C@H](Nc2nc3ccccc3s2)C1 [Example 97, 9-(trans-3-(benzo[d]thiazol-2-ylamino)cyclobutyl)-7H-purin-8(9H)-one] | 3.03
O=c1[nH]c2cccnc2n1[C@H]1C[C@H](Nc2nc3c(F)cccc3s2)C1 [Example 98] | 4.82
O=c1oc2cccnc2n1[C@H]1C[C@H](Nc2nc3ccccc3s2)C1 [Example 100] | 10.3
O=c1[nH]c2cccnc2n1[C@H]1C[C@@H](Nc2nc3ccccc3s2)C1 [Example 103, 3-(cis-3-(benzo[d]thiazol-2-ylamino)cyclobutyl)-1H-imidazo[4,5-b]pyridin-2(3H)-one] | 26.6
Cn1c(=O)n([C@H]2C[C@@H](N(C)c3nc4ccccc4s3)C2)c2ncccc21 [Example 106, 3-(cis-3-(benzo[d]thiazol-2-yl(methyl)amino)cyclobutyl)-1-methyl-1H-imidazo[4,5-b]pyridin-2(3H)-one] | 43.1
O=c1[nH]c2cccnc2n1[C@H]1CC[C@H](Nc2nc3cc(F)ccc3s2)CC1 [Example 107, 3-(trans-4-((5-fluorobenzo[d]thiazol-2-yl)amino)cyclohexyl)-1H-imidazo[4,5-b]pyridin-2(3H)-one] | 152

More lines, in order of falling IC50, values ahead:

IC50 [nM] | SMILES
352 | CC1(C)C(=O)N([C@H]2C[C@H](Nc3ccnc(Cl)n3)C2)c2ncccc21 [Example 72, 1-(trans-3-((2-cholropyrimidin-4-yl)amino)cyclobutyl)-3,3-dimethyl-1H-pyrrolo[2,3-b]pyridin-2(3H)-one]
244 | CC1(C)C(=O)N([C@H]2C[C@H](Nc3ncc(F)cn3)C2)c2ncccc21 [Example 71, 1-(trans-3-((5-fluoropyrimidin-2-yl)amino)cyclobutyl)-3,3-dimethyl-1H-pyrrolo[2,3-b]pyridin-2(3H)-one]
35.5 | COc1ccc2ccc(N[C@H]3C[C@H](n4c(=O)[nH]c5cccnc54)C3)nc2c1 [Example 105, 3-(trans-3-((7-methoxyquinolin-2-yl)amino)cyclobutyl)-1H-imidazo[4,5-b]pyridin-2(3H)-one]
31.4 | O=c1[nH]c2cccnc2n1[C@H]1CC[C@H](Nc2nc3ccccc3s2)CC1 [Example 104]
25.6 | O=c1[nH]c2cccnc2n1[C@H]1C[C@H](Nc2ncc3ccccc3n2)C1 [Example 102, 3-(trans-3-(quinazolin-2-ylamino)cyclobutyl)-1H-imidazo[4,5-b]pyridin-2(3H)-one]
17.9 | O=c1[nH]c2cccnc2n1[C@H]1C[C@H](Nc2ccc3ccc(F)cc3n2)C1 [Example 101, 3-(trans-3-((7-fluoroquinolin-2-yl)amino)cyclobutyl)-1H-imidazo[4,5-b]pyridin-2(3H)-one]
7.7 | O=c1[nH]c2cccnc2n1[C@H]1C[C@H](Nc2nc3cc(F)ccc3s2)C1 [Example 99, 3-(trans-3-((5-fluorobenzo[d]thiazol-2-yl)amino)cyclobutyl)-1H-imidazo[4,5-b]pyridin-2(3H)-one]
5.02 | Cc1ccc(N[C@H]2CC[C@H](N3C(=O)C(C)(C)c4nccnc43)CC2)nc1 [Example 75, 7,7-Dimethyl-5-(trans-4-((5-methylpyridin-2-yl)amino)cyclohexyl)-5H-pyrrolo[2,3-b]pyrazin-6(7H)-one]
2.88 | COc1ccc(N[C@H]2C[C@H](N3C(=O)C(C)(C)c4nccnc43)C2)nc1 [Example 74]
2.83 | CC(C)c1cnc(N[C@H]2C[C@H](N3C(=O)C(C)(C)c4cccnc43)C2)nc1 [Example 82, 1-(trans-3-((5-isopropylpyrimidin-2-yl)amino)cyclobutyl)-3,3-dimethyl-1H-pyrrolo[2,3-b]pyridin-2(3H)-one]
0.664 | O=c1[nH]c2cccnc2n1[C@H]1C[C@H](Nc2nc3ccc(F)cc3s2)C1 [Example 92, 3-(trans-3-((6-fluorobenzo[d]thiazol-2-yl)amino)cyclobutyl)-1H-imidazo[4,5-b]pyridin-2(3H)-one]
0.131 | O=c1n(C2CCCC2)c2cccnc2n1[C@H]1C[C@H](Nc2nc3ccccc3s2)C1 [Example 89, 3-(trans-3-(benzo[d]thiazol-2-ylamino)cyclobutyl)-1-cyclopentyl-1H-imidazo[4,5-b]pyridin-2(3H)-one]
0.0794 | O=c1n(C2CC2)c2cc(F)cnc2n1[C@H]1C[C@H](Nc2nc3ccccc3s2)C1 [Example 87, 3-(trans-3-(benzo[d]thiazol-2-ylamino)cyclobutyl)-6-fluoro-1-cyclopropyl-1H-imidazo[4,5-b]pyridin-2(3H)-one]
0.0254 | O=c1n(C2CC2)c2cccnc2n1[C@H]1C[C@H](Nc2nc3ccccc3s2)C1 [Example 85, 3-(trans-3-(benzo[d]thiazol-2-ylamino)cyclobutyl)-1-cyclopropyl-1H-imidazo[4,5-b]pyridin-2(3H)-one]
